For one data set, the system named is B16F10 melanoma cells. In words: Cell viability of B16F10 melanoma cells (CCK-8). It counts as cell-based, murine. Particulars: 24 h. On the procedure: (§1) B16F10 cells were kept in Dulbecco's modified eagle medium supplemented with 10% heat-inactivated fetal bovine serum, and cells were cultured at 37°C in an atmosphere with 5% CO2. These cells were then used for cell viability, tyrosinase inhibition and melanin content determination.
The previously described cell counting kit-8 (CCK-8) assay was used to assess cell viability ([30]). The cells were incubated in a 96-well plate with 5 × 10^4 cells per well in a 5% humid CO2 atmosphere at 37°C for 24 h. […] The cells were re-incubated for 24 h under the same conditions. The cells were then treated with the CCK-8 reagent and incubated at 37°C for 1 h. Cell viability is calculated by reading the absorbance value at 450 nm. The calculation formula is shown below. (2) Cell viability/%=(As-Ab)/(Ac-Ab)×100% where, As is the absorbance of experimental wells (medium containing cells, CCK-8, sample to be tested); Ac is the absorbance of control well (medium containing cells, CCK-8, no sample to be tested); Ab is the absorbance of blank wells (medium without cells and samples to be tested, CCK-8).

The next data set deals with Mushroom tyrosinase (Agaricus bisporus, UniProt C7FF04). Kind of data set: Tyrosinase inhibitory activity (L-DOPA oxidation, 475 nm). The class given is biochemical. As to the method: The determination of the tyrosinase inhibitory activity was made according to Uysal et al. ([26]). Sample solutions (50 μl) with the appropriate concentration were reacted with 50 μl of 200 mM pH 6.8 phosphate buffer saline (PBS) solution and 50 μl of tyrosinase at room temperature for 15 mins. Then, 50 μl of 2.5 mM L-DOPA was added, and allowed to react at 30°C for 10 min. The absorbance (As) at 475 nm was finally measured with a microplate reader (Synergy H1, BioTek Co., Ltd., USA). Taking the reaction system without enzyme and sample as a blank.
4 ml of hydrolysis product (5 mg/ml) and 2 ml of mushroom tyrosinase (10 U/ml) were incubated for 1 h at 37°C. Inactivated mushroom tyrosinase (heated in a boiling water bath for 10 mins) was also prepared as a blank group.

Data set [1] relates to B16F10 melanoma cells (melanin content). In words: Melanin content in B16F10 melanoma cells. The class given is cell-based, murine. Particulars: positive control, 0.75 mg/ml; NaOH/10% DMSO lysis, 405 nm. As to the method: as §1
After cultivated according to the instructions above, the cells were digested with 0.25% trypsin when reached to 80–90% confluence to make a single cell suspension. Fresh culture medium was used to adjust the cell concentration to 1 × 10^6 cells/ml, 2 ml of which was inoculated in a 6-well culture plate for incubation overnight. When the cells adhered, the supernatant was discarded and the cells were rinsed with PBS once. 2 ml fresh culture medium was added again for incubation under CO2 for 48 h. The supernatant was discarded after the incubation, and the adhered cells were rinsed with PBS and then dispersed with trypsin. The dispersed cells were collected and centrifuged at 1,500 r/min for 10 min. […] Measured the optical density value of each well at 405 nm with a microplate reader, and calculated the melanin content ([32]). (3) Melanin content/%=(As-Ab)/(Ac-Ab)×100% where, As is the absorbance of experimental wells; Ac is the absorbance of control well; Ab is the absorbance of blank wells.

Data set [2] relates to tyrosinase in B16F10 cells. Kind of data set: Tyrosinase activity in B16F10 melanoma cells. The class given is cell-based, murine. The settings on record: positive control, 0.75 mg/ml, 24 h; lysate with 10 mM L-DOPA, 30 min 37°C, 450 nm.
Method: The tyrosinase inhibition was determined according to the method of Ullah et al. ([31]). B16F10 cells were seeded into 96-well plates at a rate of 5 × 10^4 cells per well and incubated at 37°C in a humid atmosphere of 5% CO2 for 24 h. […] (0, 0.1, 0.2, 0.4, 0.8 and 1.6 mg/ml), and re-incubated for 24 h under the same conditions. The cells were then washed with PBS buffer, lysed with lysate buffer [100 μl containing 50 mM PBS, 0.1 mM phenylmethanesulfonyl fluoride (5 μl) and Triton X-100 (5 μl)], and frozen at −80°C for 30 min. The cell lysate was then centrifuged at 12,000 rpm at 4°C for 30 min and transferred to a 96-well plate with a total volume of 100 μl (80 μl lysate supernatant and 20 μl 10 mM L-DOPA) and incubated for 30 min at 37°C. The absorbance was measured at 450 nm using an enzyme-linked immunosorbent assay (ELISA) reader.
Another data set has as its target tyrosinase. The settings on record: cited from earlier work. From the text: Studies have shown that peptides with lower MW tend to have higher functional activity ([38]). Therefore, peptides with MW ≤ 1,000 Da were selected from the 52 peptides obtained, and 16 peptides (shown in Table 3) were obtained for subsequent analysis. Section Amino Acid Composition and Molecular Weight Distribution of Hydrolysates introduced some amino acids that contribute to tyrosinase inhibition, such as Val, Ala, Leu, Ile, Arg, Phe, Cys, Ser, and Thr. According to the screening method from previous study ([10]), 16 peptides in Table 3 were counted for their tyrosinase inhibitory contribut ...

[3] abbreviates: synthetic peptides (purity more than 95%), mushroom tyrosinase, 2.5 mM L-DOPA, 200 mM pH 6.8 PBS, preincubation 15 min room temperature, 10 min 30°C, 475 nm, three parallel tests, read-out: IC50 (tyrosinase inhibition).

Where two headings read alike, the source gives them in different places. Where a SMILES comes first, the peptide text is derived from it.

A word on the IC50: it is the concentration that inhibits the measured activity by half.

Mushroom tyrosinase, sequence (C7FF04 1-392): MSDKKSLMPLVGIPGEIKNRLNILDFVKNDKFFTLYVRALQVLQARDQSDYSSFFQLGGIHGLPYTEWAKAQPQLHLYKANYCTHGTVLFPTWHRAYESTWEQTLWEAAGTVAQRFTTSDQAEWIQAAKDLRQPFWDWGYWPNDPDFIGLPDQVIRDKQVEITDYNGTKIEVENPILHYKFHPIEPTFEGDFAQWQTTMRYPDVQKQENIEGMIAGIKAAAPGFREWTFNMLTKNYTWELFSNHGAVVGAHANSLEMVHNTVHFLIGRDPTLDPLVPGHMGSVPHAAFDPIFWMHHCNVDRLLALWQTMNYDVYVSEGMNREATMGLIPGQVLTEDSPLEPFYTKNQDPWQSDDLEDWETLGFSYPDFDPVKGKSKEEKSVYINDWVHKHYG

Consider `CC(C)C[C@H](NC(=O)[C@H](Cc1ccccc1)NC(=O)CNC(=O)[C@H](CC(C)C)NC(=O)[C@@H](N)CC(=O)O)C(=O)N[C@@H](C)C(=O)N[C@@H](CCCNC(=N)N)C(=O)NCC(=O)N[C@@H](Cc1ccccc1)C(=O)O` (H-DLGFLARGF-OH), for which the “Cell viability, concentration dependence” value with B16F10 melanoma cells (0–1.6 mg/ml, CCK-8) is on record as “cell survival rate gradually decreased”. The Cell viability with B16F10 melanoma cells (tested concentration range 0–1.6 mg/ml, CCK-8, 450 nm) was greater than 50%. Moreover, the concentration for half-maximal inhibition (IC50) on Mushroom tyrosinase is 3.09 mM. With `CC(C)C[C@H](NC(=O)[C@H](CC(=O)O)NC(=O)[C@@H](N)Cc1ccccc1)C(=O)NCC(=O)N[C@@H](Cc1ccccc1)C(=O)N[C@@H](CC(C)C)C(=O)N[C@@H](C)C(=O)N[C@@H](CCCNC(=N)N)C(=O)O` (H-FDLGFLAR-OH), the IC50 at Mushroom tyrosinase (setting [3]) turned out to be 4 mM. As to `CC(C)C[C@H](NC(=O)[C@@H](NC(=O)[C@H](CC(C)C)NC(=O)[C@H](CCC(N)=O)NC(=O)[C@@H](N)Cc1c[nH]c2ccccc12)[C@@H](C)O)C(=O)O` [WQLTL] (H-WQLTL-OH), on Mushroom tyrosinase (setting [3]), the IC50 came to 3.86 mM. On the same count and under the same terms, in the case of `CC(C)[C@H](NC(=O)[C@H](CCC(=O)O)NC(=O)[C@H](CO)NC(=O)[C@@H](N)Cc1c[nH]c2ccccc12)C(=O)N[C@@H](Cc1ccccc1)C(=O)O` [WSEVF] (H-WSEVF-OH) it was 5.81 mM. `O=c1cc(CO)occ1O` [kojic acid]: the “Reduction of melanin content” value in data set [1] came out at 55.4%. Further, the “Tyrosinase inhibition rate in B16F10 cells” value in data set [2] is given as 28.34%. With “Phe-Pro-Tyr [FPY, from defatted walnut (Juglans regia L.) meal hydrolysate]”, the IC50 on tyrosinase (from defatted walnut (Juglans regia L.) meal hydrolysate, read-out: IC50 (tyrosinase inhibition)) is 3.22 ± 0.22 mM. As to “RHAKF [from Chinese quince seed protein hydrolysate]”, the “IC50 (tyrosinase inhibition)” value at tyrosinase (from Chinese quince seed protein hydrolysate) was 1150 µg/mL.

Values taken from paper PMC8973439, “From Fish Scale Gelatin to Tyrosinase Inhibitor: A Novel Peptides Screening Approach Application” (Frontiers in Nutrition, 2022).
